Measured values published in patent US20090311217A1, “3-SUBSTITUTED-1H-INDOLE COMPOUNDS, THEIR USE AS MTOR KINASE AND PI3 KINASE INHIBITORS, AND THEIR SYNTHESES” (priority 2008, published 2009).

How the values were obtained:
PI3K-alpha = PI3K-alpha (Homo sapiens, UniProt P42336); experiment: PI3K-alpha fluorescence polarization assay; type: biochemical; settings: read-out: PI3Kα Avg. IC50
PI3K-gamma = PI3K-gamma (Homo sapiens, UniProt P48736); experiment: PI3K-gamma fluorescence polarization assay; type: biochemical; settings: PI3Kγ Avg. IC50
PI3K-gamma, sequence (P48736 whole entry, species assumed): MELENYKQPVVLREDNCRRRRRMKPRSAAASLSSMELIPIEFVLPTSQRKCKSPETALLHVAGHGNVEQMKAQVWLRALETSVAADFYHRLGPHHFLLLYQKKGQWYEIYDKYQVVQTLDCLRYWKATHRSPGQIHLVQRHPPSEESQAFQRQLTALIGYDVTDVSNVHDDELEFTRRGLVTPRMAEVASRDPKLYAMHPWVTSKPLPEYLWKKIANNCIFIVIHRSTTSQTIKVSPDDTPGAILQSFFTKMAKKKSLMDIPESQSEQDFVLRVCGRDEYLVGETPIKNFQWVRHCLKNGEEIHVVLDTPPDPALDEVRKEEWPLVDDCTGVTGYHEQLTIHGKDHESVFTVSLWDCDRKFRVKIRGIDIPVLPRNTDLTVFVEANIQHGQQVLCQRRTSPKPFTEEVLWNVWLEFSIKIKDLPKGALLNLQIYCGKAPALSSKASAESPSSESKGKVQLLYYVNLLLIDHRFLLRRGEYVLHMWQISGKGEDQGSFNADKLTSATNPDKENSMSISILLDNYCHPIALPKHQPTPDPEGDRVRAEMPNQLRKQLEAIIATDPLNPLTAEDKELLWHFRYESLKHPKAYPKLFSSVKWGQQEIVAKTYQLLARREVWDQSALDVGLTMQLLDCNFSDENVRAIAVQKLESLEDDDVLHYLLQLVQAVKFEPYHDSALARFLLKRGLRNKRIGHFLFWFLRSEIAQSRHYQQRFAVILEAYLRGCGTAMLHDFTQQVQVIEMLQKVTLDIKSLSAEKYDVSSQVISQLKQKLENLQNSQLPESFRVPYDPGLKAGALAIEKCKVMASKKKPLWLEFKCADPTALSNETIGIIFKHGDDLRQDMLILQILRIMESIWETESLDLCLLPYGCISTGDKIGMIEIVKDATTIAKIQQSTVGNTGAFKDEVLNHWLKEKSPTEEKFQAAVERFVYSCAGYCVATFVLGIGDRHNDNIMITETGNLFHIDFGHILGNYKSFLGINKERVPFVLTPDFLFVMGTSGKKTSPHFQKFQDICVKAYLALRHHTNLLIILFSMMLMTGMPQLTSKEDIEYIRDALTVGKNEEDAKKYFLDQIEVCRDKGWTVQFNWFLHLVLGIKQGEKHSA
Experimental: PI3K-Alpha, PI3K-Beta, PI3K-Gamma, and PI3K-delta Fluorescence Polarization Assay Protocols
PI3-Kinase reactions were performed in 5 mM HEPES, pH 7, 2.5 mM MgCl2, and 25 μM ATP, with diC8-PI(4,5)P2 (Echelon, Salt Lake City Utah) as substrate. Nunc 384-well black polypropylene fluorescent plates were used for PI3K assays. Reactions were quenched by the addition of EDTA to a final concentration of 10 mM. Final reaction volumes were 10 μl. For evaluation of PI3K inhibitors, 5 ng of enzyme (PI3K-alpha, beta, gamma, or delta) and 2.5 μM of substrate was used per […] reaction volume, and inhibitor concentrations ranged from 100 μM to 20 μM; the final level of DMSO in reactions never exceeded 2%. Reactions were allowed to proceed for one hour at 25° C. After 1 hour, GST-tagged GRP1 (general receptor for phosphoinositides) PH domain fusion protein was added to a final concentration of 100 nM, and BODIPY-TMRI(1,3,4,5)P4 (Echelon) was also added to a final concentration of 5 nM. Final sample volumes were 25 μl with a final DMSO concentration of 0.8%. Assay Plates were read on Perkin-Elmer Envision plate readers with appropriate filters for Tamra [BODIPY-TMRI(1,3,4,5)P4]. Data obtained were used to calculate enzymatic activity and enzyme inhibition by inhibitor compounds.

PI3K-alpha, sequence (P42336 whole entry, species assumed): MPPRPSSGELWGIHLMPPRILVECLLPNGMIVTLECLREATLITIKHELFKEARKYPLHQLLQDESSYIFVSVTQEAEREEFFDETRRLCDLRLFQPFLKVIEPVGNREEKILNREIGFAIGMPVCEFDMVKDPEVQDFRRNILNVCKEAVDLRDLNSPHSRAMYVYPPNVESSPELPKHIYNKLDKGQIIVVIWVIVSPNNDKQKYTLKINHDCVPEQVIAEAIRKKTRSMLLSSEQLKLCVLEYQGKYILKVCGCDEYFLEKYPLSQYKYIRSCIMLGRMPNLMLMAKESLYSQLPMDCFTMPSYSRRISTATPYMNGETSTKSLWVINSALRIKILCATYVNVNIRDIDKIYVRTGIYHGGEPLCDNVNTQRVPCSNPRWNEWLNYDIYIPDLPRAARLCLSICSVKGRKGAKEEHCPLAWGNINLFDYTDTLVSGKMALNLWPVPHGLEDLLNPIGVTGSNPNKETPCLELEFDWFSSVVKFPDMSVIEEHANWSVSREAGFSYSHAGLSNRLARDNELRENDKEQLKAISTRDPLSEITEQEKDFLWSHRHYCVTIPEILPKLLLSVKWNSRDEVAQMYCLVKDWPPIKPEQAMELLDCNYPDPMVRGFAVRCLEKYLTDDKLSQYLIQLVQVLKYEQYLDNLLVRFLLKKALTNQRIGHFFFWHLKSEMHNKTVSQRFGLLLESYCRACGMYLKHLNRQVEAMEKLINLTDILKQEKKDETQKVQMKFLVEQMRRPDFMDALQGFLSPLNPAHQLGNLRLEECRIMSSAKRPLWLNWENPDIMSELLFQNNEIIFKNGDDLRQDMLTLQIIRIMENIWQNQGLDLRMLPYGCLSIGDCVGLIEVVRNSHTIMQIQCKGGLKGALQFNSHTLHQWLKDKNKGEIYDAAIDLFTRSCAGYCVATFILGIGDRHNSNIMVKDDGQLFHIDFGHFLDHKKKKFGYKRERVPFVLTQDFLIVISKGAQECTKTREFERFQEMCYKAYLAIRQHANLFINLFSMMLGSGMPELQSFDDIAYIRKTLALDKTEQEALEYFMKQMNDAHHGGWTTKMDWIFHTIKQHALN
PI3K-alpha, sequence (P27986 whole entry partner, species assumed): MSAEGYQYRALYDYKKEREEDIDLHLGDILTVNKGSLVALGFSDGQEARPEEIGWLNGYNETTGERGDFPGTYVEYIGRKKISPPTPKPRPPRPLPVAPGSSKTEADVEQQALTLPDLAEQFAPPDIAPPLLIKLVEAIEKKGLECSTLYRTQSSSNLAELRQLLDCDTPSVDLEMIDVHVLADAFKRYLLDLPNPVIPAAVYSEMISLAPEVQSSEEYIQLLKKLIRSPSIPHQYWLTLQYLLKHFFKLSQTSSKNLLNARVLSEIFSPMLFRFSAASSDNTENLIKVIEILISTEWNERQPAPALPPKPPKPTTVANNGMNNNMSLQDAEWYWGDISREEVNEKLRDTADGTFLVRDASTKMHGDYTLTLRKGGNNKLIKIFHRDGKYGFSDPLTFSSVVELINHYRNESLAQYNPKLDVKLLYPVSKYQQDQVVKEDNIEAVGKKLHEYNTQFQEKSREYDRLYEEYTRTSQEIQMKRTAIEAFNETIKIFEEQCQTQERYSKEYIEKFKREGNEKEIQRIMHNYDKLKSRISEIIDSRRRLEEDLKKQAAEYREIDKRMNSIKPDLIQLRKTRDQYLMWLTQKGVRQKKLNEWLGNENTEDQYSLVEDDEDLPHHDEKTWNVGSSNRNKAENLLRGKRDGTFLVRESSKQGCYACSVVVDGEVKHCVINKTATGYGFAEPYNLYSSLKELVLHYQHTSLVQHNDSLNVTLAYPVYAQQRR

IC50 (PI3K-alpha) | IC50 (PI3K-gamma) | SMILES
0.4 nM | 4.8 nM | CNC(=O)Nc1ccc2c(c1)C(=O)/C(=C/c1c(-c3c(C)nn(C)c3C)[nH]c3ccc(OC)cc13)O2 [Compound 616, 1-[(2Z)-2-{[5-methoxy-2-(1,3,5-trimethyl-1H-pyrazol-4-yl)-1H-indol-3-yl]methylidene}-3-oxo-2,3-dihydro-1-benzofuran-5-yl]-3-methylurea]
3.5 nM | 448 nM | CNC(=O)Nc1ccc2c(c1)C(=O)/C(=C/c1c(C)n(CCCN3CCCC3)c3ccc(OC)cc13)O2 [Compound 597, 1-[(2Z)-2-{[5-methoxy-2-methyl-1-(3-pyrrolidin-1-ylpropyl)-1H-indol-3-yl]methylidene}-3-oxo-2,3-dihydro-1-benzofuran-5-yl]-3-methylurea]
4.5 nM | 4220 nM | CNC(=O)Nc1ccc2c(c1)C(=O)/C(=C/c1c(C3=CCNCC3)n(CCN3CCN(C)CC3)c3ccc(OC)cc13)O2 [Compound 607, 1-[(2Z)-2-({5-methoxy-1-[2-(4-methylpiperazin-1-yl)ethyl]-2-(1,2,3,6-tetrahydropyridin-4-yl)-1H-indol-3-yl}methylidene)-3-oxo-2,3-dihydro-1-benzofuran-5-yl]-3-methylurea]
317 nM | 5430 nM | COc1ccc2c(c1)c(C=C1Oc3cccc(O)c3C1=O)c(C)n2C [Example 121, 4-hydroxy-2-[(5-methoxy-1,2-dimethyl-1H-indol-3-yl)methylene]-1-benzofuran-3(2H)-one]
1.7 nM | 279 nM | CNC(=O)Nc1ccc2c(c1)C(=O)/C(=C/c1c(-c3cccnc3)n(CCN3CCN(C)CC3)c3ccc(OC)cc13)O2 [Compound 596, 1-[(2Z)-2-({5-methoxy-1-[2-(4-methylpiperazin-1-yl)ethyl]-2-pyridin-3-yl-1Hindol-3-yl}methylene)-3-oxo-2,3-dihydro-1-benzofuran-5-yl]-3-methylurea]
380 nM | 933 nM | COc1ccc2c(c1)c(C=C1Oc3cccc(O)c3C1=O)c(C)n2CCCCl [Example 125, 2-{[1-(3-chloropropyl)-5-methoxy-2-methyl-1H-indol-3-yl]methylene}-4-hydroxy-1-benzofuran-3(2H)-one]
235 nM | 2480 nM | COc1ccc2c(c1)c(C=C1Oc3cccc(O)c3C1=O)c(C)n2CCCCN1CCOCC1 [Example 136, 4-hydroxy-2-{[5-methoxy-2-methyl-1-(4-morpholin-4-ylbutyl)-1H-indol-3-yl]methylene}-1-benzofuran-3(2H)-one]
1540 nM | 10300 nM | COc1ccc2[nH]c(C)c(C=C3Oc4c(O)cccc4C3=O)c2c1 [Example 120, 7-hydroxy-2-[(5-methoxy-2-methyl-1H-indol-3-yl)methylene]-1-benzofuran-3(2H)-one]
30.8 nM | 417 nM | CNC(=O)Nc1ccc2c(c1)C(=O)/C(=C/c1c(C)n(CCCn3ccnc3)c3ccc(OC)cc13)O2 [Compound 598, 1-[(2Z)-2-({1-[3-(1H-imidazol-1-yl)propyl]-5-methoxy-2-methyl-1H-indol-3-yl}methylidene)-3-oxo-2,3-dihydro-1-benzofuran-5-yl]-3-methylurea]
11.5 nM | 69.5 nM | CCn1c(C)c(/C=C2\Oc3ccc(NC(=O)Nc4ccc(N(C)C)cc4)cc3C2=O)c2cc(OC)ccc21 [Compound 681, 1-[4-(dimethylamino)phenyl]-3-{(2Z)-2-[(1-ethyl-5-methoxy-2-methyl-1H-indol-3-yl)methylidene]-3-oxo-2,3-dihydro-1-benzofuran-5-yl}urea]

Further lines, the compound ahead of its results:

SMILES | IC50 (PI3K-alpha) | IC50 (PI3K-gamma)
COc1cc(/C=C/CN2CCCCC2)c2[nH]cc(/C=C3\Oc4cc(O)ccc4C3=O)c2c1 [Compound 555, (2Z)-6-hydroxy-2-({5-methoxy-7-[(1E)-3-piperidin-1-ylprop-1-en-1-yl]-1H-indol-3-yl}methylene)-1-benzofuran-3(2H)-one] | 48 nM | 1890 nM
C#CCNC(=O)Nc1ccc2c(c1)C(=O)/C(=C/c1cn(CCN3CCN(C)CC3)c3ccc(OC)cc13)O2 [Compound 548, 1-[(2Z)-2-({5-methoxy-1-[2-(4-methylpiperazin-1-yl)ethyl]-1H-indol-3-yl}methylene)-3-oxo-2,3-dihydro-1-benzofuran-5-yl]-3-prop-2-yn-1-ylurea] | 64.5 nM | 2790 nM
CCc1cc(OC)cc2c(/C=C3\Oc4cccc(O)c4C3=O)cn(CCCC#N)c12 [Compound 475, 4-{7-ethyl-3-[(Z)-(4-hydroxy-3-oxo-1-benzofuran-2(3H)-ylidene)methyl]-5-methoxy-1H-indol-1-yl}butanenitrile] | > 10000 nM | > 10000 nM
CNC(=O)Nc1ccc2c(c1)C(=O)/C(=C/c1c(C3CCCCC3)n(CCN3CCN(C)CC3)c3ccc(OC)cc13)O2 [Compound 533, 1-[(2Z)-2-({2-cyclohexyl-5-methoxy-1-[2-(4-methylpiperazin-1-yl)ethyl]-1H-indol-3-yl}methylene)-3-oxo-2,3-dihydro-1-benzofuran-5-yl]-3-methylurea] | 2.2 nM | 389 nM
COc1ccc2c(c1)c(/C=C1\Oc3ccc(NC(=O)NCCN)cc3C1=O)c(-c1ccccc1)n2CCN1CCN(C)CC1 [Compound 576, 1-(2-aminoethyl)-3-[(2Z)-2-({5-methoxy-1-[2-(4-methylpiperazin-1-yl)ethyl]-2-phenyl-1H-indol-3-yl}methylene)-3-oxo-2,3-dihydro-1-benzofuran-5-yl]urea] | 0.6 nM | 27.5 nM
COc1ccc2[nH]cc(C=C3Oc4cc(C(N)=O)ccc4C3=O)c2c1 [Compound 495, 2-[(5-methoxy-1H-indol-3-yl)methylene]-3-oxo-2,3-dihydro-1-benzofuran-6-carboxamide] | > 10000 nM | > 10000 nM
COc1ccc2[nH]cc(/C=C3\Oc4ccc(NC(=O)Nc5ccc(N(C)C)cc5)cc4C3=O)c2c1 [Compound 492, 1-[4-(dimethylamino)phenyl]-3-{(2Z)-2-[(5-methoxy-1H-indol-3-yl)methylene]-3-oxo-2,3-dihydro-1-benzofuran-5-yl}urea] | 656 nM | > 10000 nM
CNC(=O)Nc1ccc2c(c1)C(=O)/C(=C/c1c(C3=CCNCC3)[nH]c3ccc(OC)cc13)O2 [Compound 606, 1-[(2Z)-2-{[5-methoxy-2-(1,2,3,6-tetrahydropyridin-4-yl)-1H-indol-3-yl]methylidene}-3-oxo-2,3-dihydro-1-benzofuran-5-yl]-3-methylurea] | 8 nM | 113 nM
CNC(=O)Nc1ccc2c(c1)C(=O)/C(=C/c1c(-c3c(C)noc3C)[nH]c3ccc(OC)cc13)O2 [Compound 581, 1-[(2Z)-2-{[2-(3,5-dimethylisoxazol-4-yl)-5-methoxy-1H-indol-3-yl]methylene}-3-oxo-2,3-dihydro-1-benzofuran-5-yl]-3-methylurea] | 2 nM | 26.5 nM
COc1ccc(NC(=O)Nc2ccc3c(c2)C(=O)/C(=C/c2cn(CCCN(C)C)c4ccc(OC)cc24)O3)cc1 [Compound 540, 1-[(2Z)-2-({1-[3-(dimethylamino)propyl]-5-methoxy-1H-indol-3-yl}methylene)-3-oxo-2,3-dihydro-1-benzofuran-5-yl]-3-(4-methoxyphenyl)urea] | 104 nM | 1550 nM
CCCCNC(=O)Nc1ccc2c(c1)C(=O)/C(=C/c1c[nH]c3ccc(OC)cc13)O2 [Compound 487, 1-butyl-3-{(2Z)-2-[(5-methoxy-1H-indol-3-yl)methylene]-3-oxo-2,3-dihydro-1-benzofuran-5-yl}urea] | 10200 nM | > 10000 nM
COc1ccc2[nH]cc(/C=C3\Oc4ccc(-c5nnn[nH]5)cc4C3=O)c2c1 [Compound 524, (2Z)-2-[(5-methoxy-1H-indol-3-yl)methylene]-5-(1H-tetrazol-5-yl)-1-benzofuran-3(2H)-one] | 12000 nM | > 10000 nM
COC(=O)Nc1ccc2c(c1)C(=O)/C(=C/c1cn(CCCN(C)C)c3ccc(OC)cc13)O2 [Compound 538, methyl [(2Z)-2-({1-[3-(dimethylamino)propyl]-5-methoxy-1H-indol-3-yl}methylene)-3-oxo-2,3-dihydro-1-benzofuran-5-yl]carbamate] | 820 nM | > 10000 nM
CNC(=O)Nc1ccc2c(c1)C(=O)/C(=C/c1c(C)n(CCN3CCN(C)CC3)c3ccc(OC)cc13)O2 [Compound 556, 1-[(2Z)-2-({5-methoxy-2-methyl-1-[2-(4-methylpiperazin-1-yl)ethyl]-1H-indol-3-yl}methylene)-3-oxo-2,3-dihydro-1-benzofuran-5-yl]-3-methylurea] | 2.15 nM | 835 nM
COc1ccc2[nH]cc(/C=C3\Oc4ccc(NC(=O)NC(C)C)cc4C3=O)c2c1 [Compound 486, 1-isopropyl-3-{(2Z)-2-[(5-methoxy-1H-indol-3-yl)methylene]-3-oxo-2,3-dihydro-1-benzofuran-5-yl}urea] | 1460 nM | 1610 nM
COc1cc(-c2cccnc2)c2[nH]cc(/C=C3\Oc4cc(O)ccc4C3=O)c2c1 [Compound 480, (2Z)-6-hydroxy-2-[(5-methoxy-7-pyridin-3-yl-1H-indol-3-yl)methylene]-1-benzofuran-3(2H)-one] | 81.5 nM | 3510 nM
